The source of these data is article PMC5054527, “Mechanism of high affinity inhibition of the human urate transporter URAT1” (Scientific Reports, 2016).

For experiment [1], the target named is h-r EC1,TM2-4 URAT1 chimera (Homo sapiens, UniProt Q96S37, A103T/A133T/A162V/A184S/A189I/A193M/A195T/A226S/A51V/A59S/A71V/D100E/E110D/E70D/F192L/F208S/G218A/H142Q/I126T/I75V/K134T/K145R/L174R/L206V/L64P/L67F/L99I/M183V/M186S/N136D/N82D/P101S/P165H/P69R/Q182L/R124H/R89L/S107N/S46H/S66D/S68G/T128R/T219S/V117E/V198L/Y152F). Nature of the experiment: cell-based. Particulars: IC50 (uric acid transport), HEPES pH 7.3, 100 μM 14C-uric acid. From the text: (§1) hURAT1 (GenBank BC053348.1) and rURAT1 (NCBI NM_001034943.1) genes were purchased from Origene Technologies, Inc. and subcloned into pCMV6/neo using NotI, creating pCMV6/neo-hURAT1 and pCMV6/neo-rURAT1. Mutants were produced by polymerase chain reaction (PCR) or site-directed mutagenesis using the QuikChange Lightning Multi Site-Directed Mutagenesis Kit (Agilent Technologies). […] Detailed methods are provided in Supplementary Methods, and primers are listed in Supplementary Table 1. […] Residues in rURAT1 and hOAT1 that correspond to the residues in hURAT1 were identified from aligned protein sequences (Supplementary Fig. 1)[50].
Sequence of h-r EC1,TM2-4 URAT1 chimera (Q96S37 1-553 with the stated changes): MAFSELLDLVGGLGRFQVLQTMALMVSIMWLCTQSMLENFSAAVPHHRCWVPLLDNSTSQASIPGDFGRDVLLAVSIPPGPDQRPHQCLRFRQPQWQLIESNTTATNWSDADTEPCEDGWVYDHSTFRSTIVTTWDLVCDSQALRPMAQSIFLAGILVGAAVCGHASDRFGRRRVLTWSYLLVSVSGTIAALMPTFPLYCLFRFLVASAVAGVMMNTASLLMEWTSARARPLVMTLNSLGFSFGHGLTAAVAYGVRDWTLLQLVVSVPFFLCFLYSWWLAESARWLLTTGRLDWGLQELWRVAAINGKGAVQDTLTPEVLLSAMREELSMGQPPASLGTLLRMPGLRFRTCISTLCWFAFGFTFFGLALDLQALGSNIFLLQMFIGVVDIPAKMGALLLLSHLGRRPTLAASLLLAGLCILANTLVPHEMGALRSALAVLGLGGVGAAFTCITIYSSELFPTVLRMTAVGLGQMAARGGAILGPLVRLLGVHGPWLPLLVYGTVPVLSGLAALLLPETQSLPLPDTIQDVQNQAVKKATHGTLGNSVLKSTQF
(§2) DNA (10 μg) was mixed with 30 μl of DreamFect Gold (Boca Scientific) in 2 ml OptiMem (Life Technologies). […]
(§3) Compounds were serially diluted into assay buffer and added to the cells for 5 minutes prior to addition of radiolabelled uric acid substrate. […] Each treatment was measured in triplicate. […]
(§4) Nonlinear regression analyses using GraphPad Prism software were used to calculate the potency of URAT1 inhibitors (IC50 values) from log (inhibitor) versus response - variable slope (four parameters) equations. Statistical significance was assessed using Student’s unpaired t-tests.

The next experiment concerns the target h-r IC3 URAT1 chimera (Homo sapiens, UniProt Q96S37, F348L/G295S/G307R/G309K/G331N/I305V/K308R/L287I/L321R/L328P/M330G/M343T/P317V/P333A/P334G/Q297R/Q312A/R325Q/R342H/S329N/S336R/T289V/V311E/W294Q/W300Q). Nature of the experiment: cell-based.
Text: as §1, §2, §3, §4

Experiment [2] deals with T1, h-V26T hURAT1 point mutant (Homo sapiens, UniProt Q96S37, V26T).
T1 construct: expressed in transfected cells; host or cells: HEK-293T
T1 sequence (Q96S37 whole entry V26T): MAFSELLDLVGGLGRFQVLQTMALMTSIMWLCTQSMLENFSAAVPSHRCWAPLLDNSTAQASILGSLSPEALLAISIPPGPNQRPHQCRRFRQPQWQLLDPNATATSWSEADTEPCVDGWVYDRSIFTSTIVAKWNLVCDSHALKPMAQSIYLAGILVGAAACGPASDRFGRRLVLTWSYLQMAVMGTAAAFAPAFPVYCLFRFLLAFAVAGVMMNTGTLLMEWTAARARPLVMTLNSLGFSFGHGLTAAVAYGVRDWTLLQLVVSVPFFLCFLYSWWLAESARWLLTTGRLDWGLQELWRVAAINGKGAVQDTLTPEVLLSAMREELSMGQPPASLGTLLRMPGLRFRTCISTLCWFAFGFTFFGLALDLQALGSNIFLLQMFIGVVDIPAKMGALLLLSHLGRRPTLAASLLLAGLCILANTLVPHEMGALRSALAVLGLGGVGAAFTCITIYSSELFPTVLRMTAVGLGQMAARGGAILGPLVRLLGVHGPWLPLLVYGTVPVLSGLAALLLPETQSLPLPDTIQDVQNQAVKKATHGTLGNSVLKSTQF
Nature of the experiment: URAT1 uric acid transport activity assay. The experiment is classed as cell-based. Particulars: HEPES pH 7.3, 100 μM 14C-uric acid.

For experiment [3], the target named is T2, h-V18L hURAT1 point mutant (Homo sapiens, UniProt Q96S37, V18L).
T2 construct: expressed in transfected cells; host or cells: HEK-293T
T2 sequence (Q96S37 whole entry V18L): as the sequence (Q96S37 whole entry V26T) above, with V18L, T26V counted along it
Nature of the experiment: URAT1 uric acid transport activity assay. In kind it is cell-based. Particulars: HEPES pH 7.3, 100 μM 14C-uric acid.

Experiment [4] addresses T3, h-T21A hURAT1 point mutant (Homo sapiens, UniProt Q96S37, T21A).
T3 construct: expressed in transfected cells; host or cells: HEK-293T
Nature of the experiment: URAT1 uric acid transport activity assay. Particulars: HEPES pH 7.3, 100 μM 14C-uric acid. In kind it is cell-based.

For experiment [5], the target named is T4, h-S27P hURAT1 point mutant (Homo sapiens, UniProt Q96S37, S27P).
T4 construct: expressed in transfected cells; host or cells: HEK-293T
T4 sequence (Q96S37 whole entry S27P): as the sequence (Q96S37 whole entry V26T) above, with T26V, S27P counted along it
Nature of the experiment: URAT1 uric acid transport activity assay. The experiment is classed as cell-based. Particulars: HEPES pH 7.3, 100 μM 14C-uric acid.

For experiment [6], the target named is T5, h-C32T hURAT1 point mutant (Homo sapiens, UniProt Q96S37, C32T).
T5 construct: expressed in transfected cells; host or cells: HEK-293T
T5 sequence (Q96S37 whole entry C32T): as the sequence (Q96S37 whole entry V26T) above, with T26V, C32T counted along it
Nature of the experiment: URAT1 uric acid transport activity assay. The experiment is classed as cell-based. Particulars: HEPES pH 7.3, 100 μM 14C-uric acid.

Experiment [7] addresses T6, h-C351F/T354M hURAT1 double point mutant (Homo sapiens, UniProt Q96S37, C351F/T354M).
T6 construct: expressed in transfected cells; host or cells: HEK-293T
Nature of the experiment: URAT1 uric acid transport activity assay. Particulars: HEPES pH 7.3, 100 μM 14C-uric acid. The experiment is classed as cell-based. The method, boiled down:
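Readout: 14C-uric acid uptake (100 μM, 10 min) in cells transiently transfected one day earlier with mutant rURAT1. Serially diluted inhibitors were added 5 min before substrate. Triplicate points, four-parameter logistic fit for IC50.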

For experiment [8], the target named is T7, h-I481M hURAT1 point mutant (Homo sapiens, UniProt Q96S37, I481M).
T7 construct: expressed in transfected cells; host or cells: HEK-293T
T7 sequence (Q96S37 whole entry I481M): as the sequence (Q96S37 whole entry V26T) above, with T26V, I481M counted along it
Nature of the experiment: URAT1 uric acid transport activity assay. The experiment is classed as cell-based.

The target in experiment [9] is T8, h-M22V hURAT1 point mutant (Homo sapiens, UniProt Q96S37, M22V).
T8 construct: expressed in transfected cells; host or cells: HEK-293T
T8 sequence (Q96S37 whole entry M22V): as the sequence (Q96S37 whole entry V26T) above, with M22V, T26V counted along it
Nature of the experiment: URAT1 uric acid transport activity assay. The experiment is classed as cell-based. Particulars: HEPES pH 7.3, 100 μM 14C-uric acid.

In experiment [10] the target is T9, h-M25V hURAT1 point mutant (Homo sapiens, UniProt Q96S37, M25V).
T9 construct: expressed in transfected cells; host or cells: HEK-293T
T9 sequence (Q96S37 whole entry M25V): as the sequence (Q96S37 whole entry V26T) above, with M25V, T26V counted along it
Nature of the experiment: URAT1 uric acid transport activity assay. The experiment is classed as cell-based.

The target of experiment [11] is T10, h-r TM1 chimera (rURAT1 residues 1–99 and hURAT residues 100–553) (UniProt Q3ZAV1+Q96S37).
T10 construct: a chimera consisting of rURAT1 residues 1–99 and hURAT residues 100–553 (h-r TM1); expressed in transfected cells; host or cells: HEK-293T
T10 sequence (Q3ZAV1 1-99, change not shown): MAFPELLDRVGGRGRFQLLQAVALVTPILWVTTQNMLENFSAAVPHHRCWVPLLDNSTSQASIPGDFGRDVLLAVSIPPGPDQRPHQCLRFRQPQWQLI
T10 sequence (Q96S37 100-553, change not shown): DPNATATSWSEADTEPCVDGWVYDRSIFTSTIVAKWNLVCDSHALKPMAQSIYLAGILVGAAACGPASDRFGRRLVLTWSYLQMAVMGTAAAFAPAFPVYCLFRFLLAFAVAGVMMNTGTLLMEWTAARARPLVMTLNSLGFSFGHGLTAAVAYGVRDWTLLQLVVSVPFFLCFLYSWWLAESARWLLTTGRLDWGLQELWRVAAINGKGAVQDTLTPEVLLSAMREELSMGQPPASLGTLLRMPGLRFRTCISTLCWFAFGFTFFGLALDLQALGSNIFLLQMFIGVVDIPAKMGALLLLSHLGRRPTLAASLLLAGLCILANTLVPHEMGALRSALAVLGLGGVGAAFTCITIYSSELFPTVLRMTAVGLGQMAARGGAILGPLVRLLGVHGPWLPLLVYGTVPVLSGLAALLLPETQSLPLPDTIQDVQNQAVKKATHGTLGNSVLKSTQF
Nature of the experiment: URAT1 uric acid transport activity assay. The experiment is classed as cell-based, human/rat.
Text: as §1
(§5) DNA (10 μg) was mixed with 30 μl of DreamFect Gold (Boca Scientific) in 2 ml OptiMem (Life Technologies). After 20 minutes, 18 ml of media containing 2 × 10^7 cells in suspension was added and mixed, and 200 μl per well were plated onto white clear-bottomed poly-D-lysine coated 96-well plates (BD Biosciences). The cells were assayed the following day.
(§6) Compounds were serially diluted into assay buffer and added to the cells for 5 minutes prior to addition of radiolabelled uric acid substrate. URAT1-expressing cells were incubated with 100 μM ^14C-uric acid for 10 minutes. […] Each treatment was measured in triplicate.
(§7) Unlabelled uric acid was prepared at a 20 mM stock just prior to use in a solution containing 20 mM dibasic potassium phosphate and 20 mM potassium hydroxide.
as §4

For another experiment, the target named is T11, h-r TM5-N URAT1 chimera (Homo sapiens, UniProt Q96S37, S238A/V233M).
T11 construct: expressed in transfected cells; host or cells: HEK-293T
T11 sequence (Q96S37 whole entry V233M/S238A): as the sequence (Q96S37 whole entry V26T) above, with T26V, V233M, S238A counted along it
Nature of the experiment: URAT1 uric acid transport activity assay. In kind it is cell-based, human/rat. Particulars: HEPES pH 7.3, 100 μM 14C-uric acid.
Text: as §1, §5, §6, §7, §4

The target in a further experiment is T12, h-r TM7 URAT1 chimera (Homo sapiens, UniProt Q96S37, C351F/F365Y/T354M).
T12 construct: expressed in transfected cells; host or cells: HEK-293T
T12 sequence (Q96S37 whole entry C351F/T354M/F365Y): as the sequence (Q96S37 whole entry V26T) above, with T26V, C351F, T354M, F365Y counted along it
Nature of the experiment: URAT1 uric acid transport activity assay. The experiment is classed as cell-based, human/rat.
Text: as §1, §5, §6, §7, §4

The next experiment concerns the target T13, h-r TM9-C URAT1 chimera (Homo sapiens, UniProt Q96S37, A432I/A436S/H428R/T424I).
T13 construct: expressed in transfected cells; host or cells: HEK-293T
Nature of the experiment: URAT1 uric acid transport activity assay. In kind it is cell-based, human/rat. Particulars: HEPES pH 7.3, 100 μM 14C-uric acid.
Text: as §1, §5, §6, §7, §4

In experiment [12] the target is T14, r-h TM1 chimera (hURAT1 residues 1–99 and rURAT1 residues 100–553) (UniProt Q3ZAV1+Q96S37).
T14 construct: The chimera r-hTM1, consisting of hURAT1 residues 1–99 and rURAT1 residues 100–553; expressed in transfected cells; host or cells: HEK-293T
T14 sequence (Q96S37 1-99, change not shown): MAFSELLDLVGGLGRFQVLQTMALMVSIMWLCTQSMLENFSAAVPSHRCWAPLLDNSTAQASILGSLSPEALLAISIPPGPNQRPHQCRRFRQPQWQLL
T14 sequence (Q3ZAV1 100-553, change not shown): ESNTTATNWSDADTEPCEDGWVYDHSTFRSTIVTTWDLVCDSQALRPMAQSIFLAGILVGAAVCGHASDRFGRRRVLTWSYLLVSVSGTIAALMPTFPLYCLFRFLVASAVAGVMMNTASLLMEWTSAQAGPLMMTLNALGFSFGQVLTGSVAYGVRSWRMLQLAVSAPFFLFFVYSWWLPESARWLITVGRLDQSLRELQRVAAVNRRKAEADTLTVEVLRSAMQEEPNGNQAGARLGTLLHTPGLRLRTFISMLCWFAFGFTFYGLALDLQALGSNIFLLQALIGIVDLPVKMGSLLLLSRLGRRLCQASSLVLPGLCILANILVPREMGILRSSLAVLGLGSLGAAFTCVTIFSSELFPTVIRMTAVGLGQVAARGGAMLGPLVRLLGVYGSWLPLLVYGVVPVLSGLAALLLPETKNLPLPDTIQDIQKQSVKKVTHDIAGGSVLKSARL
Nature of the experiment: URAT1 uric acid transport activity assay. Particulars: HEPES pH 7.3, 100 μM 14C-uric acid. In kind it is cell-based, human/rat.
Text: as §1, §5, §6, §7, §4

The target in another experiment is T15, h-r TM10 URAT1 chimera (Homo sapiens, UniProt Q96S37, G444S/I452V/V445L/Y455F).
T15 construct: expressed in transfected cells; host or cells: HEK-293T
T15 sequence (Q96S37 whole entry G444S/V445L/I452V/Y455F): as the sequence (Q96S37 whole entry V26T) above, with T26V, G444S, V445L, I452V, Y455F counted along it
Nature of the experiment: URAT1 uric acid transport activity assay. The experiment is classed as cell-based, human/rat. Particulars: HEPES pH 7.3, 100 μM 14C-uric acid.
Text: as §1, §5, §6, §7, §4

In experiment [13] the target is T16, hURAT1-S35N/F365Y double point mutant (Homo sapiens, UniProt Q96S37, F365Y/S35N).
T16 construct: hURAT1 and rURAT1 are 553 amino acid proteins with 12 transmembrane segments; expressed in transfected cells; host or cells: HEK-293T
T16 sequence (Q96S37 whole entry S35N/F365Y): as the sequence (Q96S37 whole entry V26T) above, with T26V, S35N, F365Y counted along it
Nature of the experiment: URAT1 uric acid transport activity assay. The experiment is classed as cell-based.

“And” between values parts separate entries of the source, which are not always exact repeats. Equal entries are not always repeated.

What is called IC50 is the concentration at which inhibition is half-maximal.

Sequence of h-r IC3 URAT1 chimera (Q96S37 1-553 with the stated changes): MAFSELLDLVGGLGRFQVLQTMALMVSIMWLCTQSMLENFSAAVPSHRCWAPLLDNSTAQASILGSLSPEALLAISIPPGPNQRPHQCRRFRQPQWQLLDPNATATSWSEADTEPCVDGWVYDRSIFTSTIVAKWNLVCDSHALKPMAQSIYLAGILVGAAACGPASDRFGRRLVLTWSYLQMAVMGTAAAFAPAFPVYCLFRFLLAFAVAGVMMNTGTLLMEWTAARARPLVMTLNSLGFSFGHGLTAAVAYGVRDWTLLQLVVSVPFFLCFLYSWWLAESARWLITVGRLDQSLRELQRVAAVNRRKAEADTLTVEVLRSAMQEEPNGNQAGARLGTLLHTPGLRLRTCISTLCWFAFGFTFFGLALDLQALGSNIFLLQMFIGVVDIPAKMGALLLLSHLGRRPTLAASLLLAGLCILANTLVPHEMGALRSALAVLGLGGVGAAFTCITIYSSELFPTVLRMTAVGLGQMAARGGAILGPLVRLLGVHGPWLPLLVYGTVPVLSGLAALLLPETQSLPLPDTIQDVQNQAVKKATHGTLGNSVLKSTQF
T6 sequence (Q96S37 whole entry C351F/T354M): as the sequence (Q96S37 whole entry V26T) above, with T26V, C351F, T354M counted along it
T3 sequence (Q96S37 whole entry T21A): as the sequence (Q96S37 whole entry V26T) above, with T21A, T26V counted along it
T13 sequence (Q96S37 whole entry T424I/H428R/A432I/A436S): as the sequence (Q96S37 whole entry V26T) above, with T26V, T424I, H428R, A432I, A436S counted along it

In the case of `O=C1C(CC[S+]([O-])c2ccccc2)C(=O)N(c2ccccc2)N1c1ccccc1` (centres unmarked) [sulfinpyrazone], the IC50 in experiment [1] was 3 µM and 3.4 µM; against h-r IC3 URAT1 chimera, 67 ± 15 µM; in experiment [2] it was 21 ± 4.7 µM; in experiment [3], 19 ± 4.7 µM; in [4] it was 12 ± 2.3 µM; in [5], 9.3 µM and 9 µM. In addition, the IC50 is 29 ± 3.2 µM in experiment [6]; 60 ± 5.9 µM in [7]; 118 ± 8.1 µM in experiment [8] (h-I481M, HEPES pH 7.3, 100 μM 14C-uric acid); 28 ± 3.1 µM in experiment [9]; 53 ± 6 µM in [10] (h-M25V, HEPES pH 7.3, 100 μM 14C-uric acid); 93 ± 17 µM in experiment [11] (h-r TM1, HEPES pH 7.3, 100 μM 14C-uric acid). For the same compound, the IC50 at h-r TM5-N URAT1 chimera is 37 ± 9 µM; on h-r TM7 URAT1 chimera (h-r TM7, HEPES pH 7.3, 100 μM 14C-uric acid), 254 ± 47 µM; at h-r TM9-C URAT1 chimera it was 38 ± 11 µM; in experiment [12], 87 ± 25 µM; against h-r TM10 URAT1 chimera, 49 ± 11 µM. Moreover, the “fold reduced affinity of h-I481M compared to hURAT1” value in experiment [8] (from IC50 values) turned out to be 4 fold. In experiment [10] (from IC50 values), the “fold reduced affinity of h-M25V compared to hURAT1” value was found to be 1.7 fold. The “fold reduced affinity of h-r TM1 compared to hURAT1” value in [11] (from IC50 values) is given as 3 fold. For the same compound, the “fold reduced affinity of h-r TM7 compared to hURAT1” value on h-r TM7 URAT1 chimera (from IC50 values) is on record as 8 fold.
Regarding `O=c1[nH]c(=O)c2[nH]c(=O)[nH]c2[nH]1` [uric acid], the “fold decrease in affinity of h-S35N/F365Y relative to hURAT1” value in [13] (from IC50 values) is on record as 3.9 fold. This compound registered an IC50 in experiment [13] (hURAT1-S35N/F365Y, MES pH 5.5, 100 μM 14C-uric acid) of 960 µM.
